Consider three compounds from patent US12384813B2, “Polymer linked multimers of guanosine-3′, 5′-cyclic monophosphates” (MIRECA MEDICINES GMBH, priority 2016, dated 2025).

The target of one data set is T1, PKG Iα (Homo sapiens, UniProt Q13976).
T1 sequence (Q13976 1-671): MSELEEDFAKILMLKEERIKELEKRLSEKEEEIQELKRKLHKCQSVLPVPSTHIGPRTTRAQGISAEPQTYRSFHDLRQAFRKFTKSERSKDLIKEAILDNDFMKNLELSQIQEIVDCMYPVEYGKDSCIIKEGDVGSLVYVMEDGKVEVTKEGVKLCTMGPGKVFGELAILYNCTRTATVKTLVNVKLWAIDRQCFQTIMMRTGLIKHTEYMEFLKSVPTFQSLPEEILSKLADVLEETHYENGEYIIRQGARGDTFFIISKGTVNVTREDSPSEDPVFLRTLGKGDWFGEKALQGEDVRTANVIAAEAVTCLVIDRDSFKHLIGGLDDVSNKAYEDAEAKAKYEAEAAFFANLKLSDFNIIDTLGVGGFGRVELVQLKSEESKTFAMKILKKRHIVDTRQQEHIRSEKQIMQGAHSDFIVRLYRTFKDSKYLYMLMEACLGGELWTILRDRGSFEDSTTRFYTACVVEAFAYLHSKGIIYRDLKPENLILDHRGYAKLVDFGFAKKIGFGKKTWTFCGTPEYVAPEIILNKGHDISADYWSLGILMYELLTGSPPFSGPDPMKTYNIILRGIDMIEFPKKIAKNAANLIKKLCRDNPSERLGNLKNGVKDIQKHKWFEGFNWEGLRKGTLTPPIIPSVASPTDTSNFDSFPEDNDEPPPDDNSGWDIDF
As to conditions: cited from earlier work.

A short description of data set [1]: Water solubility of alkyl spacer PLDs. The format is physicochemical. Particulars: alkyl spacers with moderate size.
The next data set has as its target T2, PKG Iβ (Homo sapiens, UniProt Q13976).
T2 construct: made in house; host or cells: Sf9 cells
T2 sequence (Q13976 1-686 isoform Q13976-2): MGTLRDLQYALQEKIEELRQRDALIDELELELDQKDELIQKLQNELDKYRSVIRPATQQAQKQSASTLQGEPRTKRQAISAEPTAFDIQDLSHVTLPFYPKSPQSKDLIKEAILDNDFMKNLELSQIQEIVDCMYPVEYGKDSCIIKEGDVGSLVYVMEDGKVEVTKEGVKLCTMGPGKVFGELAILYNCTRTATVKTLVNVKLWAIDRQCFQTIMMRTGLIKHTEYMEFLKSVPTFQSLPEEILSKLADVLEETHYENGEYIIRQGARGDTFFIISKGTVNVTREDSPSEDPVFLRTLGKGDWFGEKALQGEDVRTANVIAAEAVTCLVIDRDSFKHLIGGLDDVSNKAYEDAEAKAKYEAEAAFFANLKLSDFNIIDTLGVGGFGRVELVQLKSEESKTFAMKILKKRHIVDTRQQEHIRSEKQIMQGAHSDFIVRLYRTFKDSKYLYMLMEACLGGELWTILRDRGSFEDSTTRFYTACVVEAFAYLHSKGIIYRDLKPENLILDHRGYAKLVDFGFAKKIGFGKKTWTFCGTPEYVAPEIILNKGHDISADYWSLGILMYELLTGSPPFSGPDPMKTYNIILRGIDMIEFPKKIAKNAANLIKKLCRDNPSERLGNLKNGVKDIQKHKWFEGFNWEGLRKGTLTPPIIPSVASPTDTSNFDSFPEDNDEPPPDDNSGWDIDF
The data set is described as follows: In vitro activation of PKG Iβ, ADP-Glo Kinase Assay (luminescence), VASPtide substrate. Particulars: compound lacking PET moiety vs compound 5. It is filed as biochemical.

The target in another data set is T3, PKG II (Homo sapiens, UniProt Q13237).
T3 sequence (Q13237 1-762): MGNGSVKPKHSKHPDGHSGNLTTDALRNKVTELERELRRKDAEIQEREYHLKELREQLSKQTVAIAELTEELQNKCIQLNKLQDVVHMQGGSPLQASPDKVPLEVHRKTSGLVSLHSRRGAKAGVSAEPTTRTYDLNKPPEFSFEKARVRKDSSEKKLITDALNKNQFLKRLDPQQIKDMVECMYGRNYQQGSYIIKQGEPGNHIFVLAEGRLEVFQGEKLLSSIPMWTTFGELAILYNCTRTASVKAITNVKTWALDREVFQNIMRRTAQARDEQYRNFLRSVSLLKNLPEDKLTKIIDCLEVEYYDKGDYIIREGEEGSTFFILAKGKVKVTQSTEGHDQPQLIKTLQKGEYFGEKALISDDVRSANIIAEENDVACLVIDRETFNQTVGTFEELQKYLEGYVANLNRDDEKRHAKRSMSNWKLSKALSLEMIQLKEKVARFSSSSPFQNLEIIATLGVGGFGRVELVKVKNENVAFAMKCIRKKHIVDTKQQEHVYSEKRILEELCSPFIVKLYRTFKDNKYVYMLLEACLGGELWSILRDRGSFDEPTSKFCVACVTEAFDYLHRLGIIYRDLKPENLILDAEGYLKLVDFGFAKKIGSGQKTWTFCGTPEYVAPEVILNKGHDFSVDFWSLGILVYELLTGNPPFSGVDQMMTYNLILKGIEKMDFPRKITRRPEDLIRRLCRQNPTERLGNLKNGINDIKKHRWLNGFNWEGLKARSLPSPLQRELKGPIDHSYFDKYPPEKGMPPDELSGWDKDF
The data set is described as follows: In vitro activation of PKG II, ADP-Glo Kinase Assay (luminescence), VASPtide substrate. Particulars: compound lacking PET moiety vs compound 5.

Method for PKG II: (§1) In vitro activation experiments with PKG isozymes Iα, Iβ and II were performed with the commercially available luminescence assay ADP-Glo™ Kinase Assay (Cat. #V9101) from Promega Corporation (Madison, WI, USA) according to the manufacturer's instruction manual (The ADP-Glo™ Kinase Assay Technical Manual #TM313), standardized and conducted by BIAFFIN GmbH & Co KG (Kassel, Germany). Luminescence detection was accomplished with a LUMIstar Optima microplate luminometer from BMG LABTECH GmbH (Ortenberg, Germany). […] Human PKGIβ and PKGII were expressed in Sf9 cells and purified by affinity chromatography.^2 Concentrations of enzymes given below refer to the dimeric form.
PKG II (0.5 nM), 20 mM Tris (pH 7.4), 10 mM Mg2Cl2, 1 mg/mL BSA, 5 mM (3-mercaptoethanol, 2.5% DMSO, 130 μM VASPtide, 50 μM ATP, room temperature, 120 min.
Method for PKG Iβ: as §1
PKG Iβ (0.15 nM), 20 mM Tris (pH 7.4), 10 mM Mg2Cl2, 1 mg/mL BSA, 2.5% DMSO, 130 μM VASPtide, 50 μM ATP, room temperature, 60 min.

Consider `Nc1nc2c(nc(Sc3ccccc3N)n2[C@@H]2O[C@@H]3COP(=O)(O)O[C@H]3[C@H]2O)c(=O)[nH]1` [8-APT-cGMP, 8-(2-NH2-Ph-S)-cGMP], for which the “PKG Iα activation potential compared to cGMP (literature)” value at PKG Iα was “about 15 fold”.

For the compound `Nc1nc2c(nc(SCCCCCCCCCCCCSc3nc4c(=O)[nH]c(N)nc4n3[C@@H]3OC4COP(=O)(O)O[C@H]4C3O)n2[C@@H]2OC3COP(=O)(O)O[C@H]3C2O)c(=O)[nH]1` (stereo partly shown) [compound 16, Guanosine-3′,5′-cyclic monophosphate-[8-thio(dodecanyl)-thio-8]-guanosine-3′,5′-cyclic monophosphate], in data set [1], the water solubility entry is given as “sufficient water solubility”.

In the case of `Nc1nc2c(nc(SCC(=O)NCCOCCOCCOCCOCCOCCOCCOCCOCCNC(=O)CSc3nc4c(=O)[nH]c(N)nc4n3C3OC4COP(=O)(O)OC4C3O)n2C2OC3COP(=O)(O)OC3C2O)c(=O)[nH]1` (stereo not shown) [compound 3, Guanosine-3′,5′-cyclic monophosphate-[8-thiomethylamido-(octaethoxy)-ethylamidomethylthio-8]-guanosine-3′,5′-cyclic monophosphate], the “decrease of relative PKG Iβ activation compared to compound 5” value on PKG Iβ is on record as “more than 51 fold”. On PKG II, the “increase of relative PKG II activation compared to compound 5” value is reported as 30 fold.
